Laboratory results taken from patent EP0933027A1, “Methods and compositions for protecting animals and humans against attack and infestation by arthropod and helminth parasites” (American Cyanamid Company, priority 1998, dated 1999).
Like-named read-outs stand apart in the source and are kept apart here.

How the values were obtained:
[1] = tested on: Dermacentor variabilis; experiment: Contact activity against larval American dog tick (coated vial)
Experimental: This test is designed to evaluate the contact activity of test compounds against the American dog tick. Test compounds are dissolved in 100% acetone to 1000, 300, 100, 10, 1 and 0.1 ppm. 100 µL of each of these dilutions is added to the bottom of a 20 mL glass scintillation vial with a pipettor. The vial is allowed to dry under a fume hood for 15 minutes. The vial is then turned in its side, and 250 µL of each dilution is applied to the sides of the vial. The vial is placed on a rolling machine and allowed to roll under the hood, coating the sides of the vial, until the acetone completely evaporates. The bottom of the vial measures 4.909 cm^2 and the sides measure 4.5 cm high x 8.8 cm around, so that the total coated area of the scintillation vial measures 44.51 cm^2. The amount of test compound applied by each dilution equals 7.86, 2.36, 0.79, 0.079, 0.0079 and 0.00079 µg/cm^2, respectively. Unfed larval dog ticks are counted into the scintillation vials with a slightly damp paintbrush. Ten ticks are placed in each vial. These tests are done in replicates of two or three so that there are 20 to 30 ticks per rate/compound. Mortality readings are taken 4 and 24 hours after placing the ticks in the vials. To read the test, the vial is placed under a magnifying glass and tapped gently. […] Percent mortality is then calculated for each treatment.

[2] = tested on: Musca domestica; experiment: Coated vial test against adult house fly
Experimental: This test is designed to evaluate the activity of test compounds against the house fly. Test compounds are dissolved in 100% acetone to 1000, 300, 100, 10 and 1 ppm. 100 µL of each of these dilutions is added to the bottom of a 20 mL glass scintillation vial with a pipettor. The vial is allowed to dry under a fume hood for 15 minutes. The vial is then turned on its side, and 250 µL of each dilution is applied to the sides of the vial. The vial is placed on a rolling machine and allowed to roll under the hood, coating the sides of the vial, until the acetone completely evaporates. The bottom of the vial measures 4.909 cm^2 and the sides measure 4.5 cm high x 8.8 cm around, so that the total coated area of the scintillation vial measures 44.51 cm^2. The amount of test compound applied by each dilution equals 7.86, 2.36, 0.79, 0.079, and 0.0079 µg/cm^2, respectively. Included in all tests are two to three replications of untreated vials. Adult house flies which are five to seven days old are chilled in a freezer for five minutes to immobilize, and are placed on a sorting platform which provides a steady stream of CO2 to keep the flies immobile. Five flies are counted into each scintillation vial with forceps. The top of the vial is plugged with a wad of sheet cotton sufficient to contain the flies. These tests are done in replicates of two to four so that there are 10 to 20 flies per rate/compound. Mortality readings are taken 1 and 4 hours after placing the flies in the vials. Flies which are unable to stand when disturbed are considered dead. Percent mortality is then calculated for each treatment.

[3] = dose 0.079 µg/cm^2, 4 hours, read-out: 4 Hour % Mortality
[4] = dose 0.790 µg/cm^2, 4 hours, read-out: 4 Hour % Mortality
[5] = dose 2.360 µg/cm^2, 4 hours, read-out: 4 Hour % Mortality

CCOc1ccc(C(/C(F)=C/Cc2ccc(F)c(Oc3ccccc3)c2)C2CC2)cc1 (centres unmarked) [Compound 10, 1-[1-(p-Ethoxyphenyl)-2-fluoro-4-(4-fluoro-3-phenoxyphenyl)-2-butenyl]cyclopropane, (Z)-]
mortality at 0.079 µg/cm2 [1, 3]: 100% | mortality at 0.079 µg/cm2 ([1]; dose 0.079 µg/cm^2, 24 hours, read-out: 24 Hour % Mortality): 100% | mortality at 0.79 µg/cm2 [1, 4]: 100% | mortality at 0.79 µg/cm2 ([1]; dose 0.790 µg/cm^2, 24 hours, read-out: 24 Hour % Mortality): 100% | mortality at 2.36 µg/cm2 [1, 5]: 100% | mortality at 2.36 µg/cm2 ([1]; dose 2.360 µg/cm^2, 24 hours, read-out: 24 Hour % Mortality): 100% | mortality at 7.86 µg/cm2 ([1]; dose 7.860 µg/cm^2, 4 hours, read-out: 4 Hour % Mortality): 100% | mortality at 7.86 µg/cm2 ([1]; dose 7.860 µg/cm^2, 24 hours, read-out: 24 Hour % Mortality): 100% | mortality at 0.079 µg/cm2 ([2]; dose 0.079 µg/cm^2, 1 hour, read-out: 1 Hour % Mortality): 20% | mortality at 0.079 µg/cm2 [2, 3]: 60% | mortality at 0.79 µg/cm2 ([2]; dose 0.790 µg/cm^2, 1 hour, read-out: 1 Hour % Mortality): 20% | mortality at 0.79 µg/cm2 [2, 4]: 75% | mortality at 2.36 µg/cm2 ([2]; dose 2.360 µg/cm^2, 1 hour, read-out: 1 Hour % Mortality): 40% | mortality at 2.36 µg/cm2 [2, 5]: 100%
